The values that follow come from patent US20240002424A1, “HEXOSAMINE COMPOUNDS AND METHODS THEREOF” (National Institute of Immunology, priority 2021, published 2024).

In data set [1] the test system is HL-60 cells. Kind of data set: Western blot of total lysates for sLeX (CSLEX1) epitopes. It counts as cell-based, human. The settings on record: HL-60 total lysates; 50 μM, 72 h. How it is done:
Effect of ManNAc analogues on expression of CD15s epitopes: HL-60 cells (3.0×10^5 cells/mL in 10 mL complete medium in 10 cm diameter petri dishes) were incubated with D, 1a, 1b, 1d, 1e, 1f, or 1g (50 mM), along with untreated (U) controls. After 72 h, cells were harvested, washed with PBS (3×5.0 mL), and lysed in RIPA buffer (10^7 cells in […]), containing protease inhibitor cocktail (PIC, 1:100). Protein concentration of the soluble fraction was estimated using the Bradford assay. Proteins from total lysates were resolved by 7.5% SDS-PAGE and blotted onto nitrocellulose membrane (constant current of 250 mA for 3.0 h at 4° C.). Membranes were blocked using non-fat milk (NFM) (5.0% w/v) in PBS and incubated with primary antibodies (5.0 mL PBS containing 5.0% NFM) overnight at 4° C. Membranes were washed with 0.1% PBS-T (0.1% v/v tween-20 in PBS; 3×5.0 mL, five min each at room temperature) followed by incubation with appropriate fluorophore or horse radish peroxidase (HRP) conjugated secondary antibodies for 1.0 h at room temperature. Membranes were washed with 0.1% PBS-T (3×5.0 mL, five min each) and then either directly scanned using Amersham Typhoon fluorescence scanner or developed on photographic films after treatment with enhanced chemiluminescence reagents. At least two independent replicate experiments were performed for all the blots.
The primary and secondary antibodies employed, along with dilution and stock concentration, are given below: Primary antibodies: Anti-CD15s (CSLEX1; IgM, dilution 1:5000; stock concentration 0.5 mg/mL) Anti-CLA (HECA452; IgM, dilution 1:1000, stock concentration 0.5 mg/mL) […] (AC15, IgG, dilution 1:20000, stock concentration 2.2 mg/mL); and Secondary Antibodies: AlexaFluor488-conjugated anti-mouse IgM (1:10000, stock concentration 2.0 mg/mL) AlexaFluor488-conjugated anti-rat IgM (1:10000, stock concentration 0.5 mg/mL) HRP-conjugated anti-mouse IgG (1:10000, stock concentration 0.8 mg/mL) Cy5-conjugated donkey anti-mouse IgG (1:10000, stock concentration 1.4 mg/mL) AlexaFluorplus488-conjugated anti-mouse IgG (1:10000, stock conc. 2.0 mg/mL).
(Immunoblotting shows a protein as a band on a membrane.)

The subject of data set [2] is HL-60 cells. As to the kind of experiment: Cell surface sialyl-Lewis-X (CD15s) by anti-CD15s (CSLEX1) flow cytometry. It counts as cell-based, human. To be noted: 50 μM, 24 h. How it is done: Effect of ManNAc analogues on the expression of sialyl-Lewis-X and Lewis-X: HL-60 cells (3.0×10^5 cells/mL in 2.0 mL complete medium in 6 well plate) were treated with D (vehicle), 1a, 1b, 1c, 1d, 1e, 1f, or 1g (50 PM), along with untreated (U) control. After 24 h, cells were harvested and washed with PBS (3×0.5 mL, 3000×g, 3.0 min at room temperature). Prior to last wash, cells were counted using Z2 coulter counter and aliquoted at 2.5×10^5 cells per sample and stained with either mouse anti-human CD15s (CSLEX1) (1.25 μg/mL) or mouse anti-human CD15 (HI98) (2.5 μg/mL) in HEPES/CaCl2) buffer (30 mM HEPES, 110 mM NaCl, 10 mM KCl, 2 mM MgCl2, 10 mM glucose, 1.5 mM CaCl2) containing 0.1% bovine serum albumin, pH 7.3) (total volume of 100 μL) for 30 min at 4° C. Cells were washed with HEPES/CaCl2 buffer (2×0.5 mL) and stained with AlexaFluor488-conjugated anti-mouse IgM (2.5 μg/mL) (for both CD15s and CD15) in 100 μL HEPES/CaCl2 for 30 min at 4° C. Cells were washed with HEPES/CaCl2 buffer (2×0.5 mL), resuspended in PBS (0.2 mL), treated with PI (2.5 μg/ml) and analysed by BD FACSVerse. Samples treated with (i) isotype antibodies followed by secondary antibody and (ii) secondary antibody alone were prepared as controls. Single Cells were gated for PI-negative population for 10,000 events and analysed by flow cytometry. Two replicate samples were prepared for each condition and each sample was counted twice. Three independent experiments were performed. Data was analysed using FlowJo V10. For plotting graph and calculation of significant probability ‘p’ values, two-way ANOVA with Dunnett's multiple comparison tests was employed in GraphPad Prism 8.
Time course of CD15s expression: HL-60 cells (3.0×10^5 cells/mL in 2.5 mL complete medium in 6-well plates) were incubated with D, 1a, 1b, or 1d (50 mM). At each time point, from day 1 to day 6, the cells were harvested from the entire contents of the well, washed, and aliquoted to 5.0×10^5 cells per sample, and immuno-stained using anti-CD15s (CSLEX1) antibody as mentioned above. On day 3, 4, and 5 complete media (1.0 mL) was added to each remaining well in order to compensate for media exhaustion. No contents were removed from the well during the period.
(Flow cytometry measures light scatter and fluorescence of single cells or particles in a stream.)

Data set [3] concerns HL-60 cells. Kind of data set: NeuAz expression by SPAAC with DBCO-Cy5 and flow cytometry, competition with 1c. In kind it is cell-based, human. To be noted: 50 μM with 1c 50 μM, 24 h. How it is done:
Estimation of NeuAz expression by 1c in the presence of peracetylated ManNAc analogues: Jurkat cells (3.0×10^5 cells/mL in 3.0 mL per well in 6-well plates) were incubated with (i) D, (ii) 1a, 1b, 1c, or 1d alone (50 mM) or (iii) 1a, 1b, or 1d (50 mM) in combination with 1c (50 mM). After 24 h, cells were harvested, washed using FSB, aliquoted to 5.0×10^5 cells per sample, and processed as mentioned above for estimation of NeuAz expression using DBCO-Cy5 ([…]). Experiments using HL-60 cells were performed using the same procedure.
Having confirmed metabolic acceptability in Jurkat cells, the compounds were tested on HL-60 (human acute myeloid leukemia) cells which are a reliable model for neutrophil adhesion. The effect on competitive suppression of NeuAz expression was studied using 1c as a reporter. HL-60 cells were treated with 1c either alone (50 μM) or in combination with ManNAc analogues (50 μM), including the straight chain derivatives, for 24 h followed by DBCO-Cy5 ligation. […] The decreasing ability of linear alkyl moieties (1d-1g), as a function of chain length, for suppression of NeuAz expression is in contrast to the cycloalkyl moieties. […] Similarly, 1a induced a reduction of 40% compared to only a 15% reduction by 1f.

Data set [4] has as its system neural cell adhesion molecules (NCAM). The settings on record: cited from earlier work.
Data set [5] concerns HL-60 cells. As to the kind of experiment: Total and glycoside bound sialic acids by periodate-resorcinol assay. In kind it is cell-based, human. The settings on record: 100 μM, 48 h. How it is done: Total sialic acids were measured following reported procedures. HL-60 cells (3.0×10^5 cells/mL in 10 mL complete medium in 10 cm diameter Petri dishes) were incubated with D, 1a, 1b, 1c, 1d, 1e, 1f, 1g, 2a, or 2b (100 mM each), along with untreated (U) controls. After 48 h, cells were harvested, washed with PBS (3×5.0 mL; 3000×g, for 2.0 min), aliquoted to 2×10^6 cells per sample and resuspended in PBS (150 mL) in 1.5 mL microcentrifuge tubes. Cells were lyzed by three freeze-thaw cycles and the total lysates were subjected to periodate-resorcinol assay. Briefly, lysates (150 mL) were treated with 0.4 M aqueous periodic acid (6.67 mM) or (2.5 mL) and incubated either on ice for 15 min (for measurement of total sialic acids) or at 37° C. for 1.0 h (for measurement of glycoconjugate bound sialic acids). About 10 mL of reagent cocktail was prepared using 6% w/v of aqueous resorcinol (1.0 mL), 2.5 mM copper (II) sulfate (1.0 mL), 44% of concentrated hydrochloric acid (4.4 mL), and water (3.6 mL). The mixture was then treated with the reagent cocktail (250 mL per sample), boiled at 100° C. for 10 min, rapidly quenched in an ice-bath and treated with tert-butanol (250 mL). The contents were centrifuged and the supernatants were aliquoted (200 mL) into 96-well plates and the absorbance at 630 nm was measured. At least three replicates were prepared for each condition.

Data set [6] concerns HL-60 cells. Kind of data set: Cell density as a measure of proliferation/cytotoxicity. It counts as cell-based, human. To be noted: 100 μM, cell density measured at 24, 48, and 72 h.
Data set [7] deals with HL-60 cells. Kind of data set: Cell surface sialyl-Lewis-X (CD15s) by anti-CD15s (CSLEX1) flow cytometry. It counts as cell-based, human. The settings on record: single dosage 50 μM.
Data set [8] deals with HL-60 cells. To be noted: 10 mM; cited from earlier work.

On to `CCCC(=O)N[C@@H]1[C@@H](OC(C)=O)O[C@H](COC(C)=O)[C@@H](OC(C)=O)[C@@H]1OC(C)=O` [Compound 1f, 1,3,4,6-tetra-O-acetyl-2-(1-butanoyl)amino-2-deoxy-α-D-mannopyranose], for which, in data set [1], the “sLeX (CSLEX1) bands between 150-100 kDa in western blot” value is recorded as “moderate increase”. Besides, the “increase in binding of CSLEX1 antibody (sLeX), in words” value in data set [2] was “three-fold increase”. Also, in data set [3], the “NeuAz expression with respect to 1c alone (100%)” value came out at 85%, the “reduction of NeuAz expression with respect to controls” value stood at 15% and the “suppression of NeuAz expression (in words)” value is recorded as “moderate suppression”. In addition, the “inhibition of polysialic acid attachment to NCAM” value in data set [4] is “efficient inhibitor”. For the same compound, the “glycoside bound sialic acid levels (in words)” value in data set [5] is given as “comparable to untreated cells”.

Regarding `CCCCC(=O)N[C@@H]1C(OC(C)=O)O[C@H](COC(C)=O)[C@@H](OC(C)=O)[C@@H]1OC(C)=O` (stereo partly drawn) [Compound 1g, 1,3,4,6-tetra-O-acetyl-2-(1-pentanoyl)amino-2-deoxy-D-mannopyranose], the “sLeX (CSLEX1) bands between 150-100 kDa in western blot” value in data set [1] is reported as “moderate increase”. In addition, the “increase in binding of CSLEX1 antibody (sLeX) compared to controls” value in data set [2] was approximately 2.5 fold. Besides, the “decrease in cell density” value in data set [6] is approximately 10%. Also, in data set [3], the “NeuAz expression with respect to 1c alone (100%)” value is 90%, the “reduction of NeuAz expression with respect to controls” value stood at 10% and the “suppression of NeuAz expression (in words)” value was “mild effect”. The “maximum increase in sLeX levels on day 2” value in data set [7] (day 2) was found to be 2.2 fold. The “sLeX levels by day 6 (in words)” value in data set [7] (day 6) is “returned to normal levels”. For the same compound, in data set [7] (time course day 1 to day 6), the “day of peak sLeX expression” value was 2 days. Further, in data set [5], the “decrease in total sialic acid levels” value came out at 0.7 fold and the “ratio of total sialic acids to glycoside bound sialic acids vs untreated cells” value was “lower ratios”.

`CCC(=O)N[C@@H]1C(O)O[C@H](CO)[C@@H](O)[C@@H]1O` (stereo partly shown) [ManNProp]: the “expression of sLeX epitopes (KM93 antibody), particularly on PSGL-1/CD162” value in data set [8] was “enhanced expression of sLeX epitopes”.
